Experiments:
[1] = target: T1, hα7-wt nAChR-expressing GH4Cl cells (Homo sapiens, UniProt P36544); test: Patch-clamp current recording (whole-cell), potentiation of choline 1 mM response, PAM type; type: cell-based; set-up: key to Pam type: Type 0 compounds minimally enhance the effect size of the current elicited by 1 mM choline.; Type 1 compounds enhance the effect size of the current elicited by 1 mM choline but minimally alter the kinetics of the receptor.; Type 2 compounds enhance the effect size of the current elicited by 1 mM choline while reducing the rate and/or the extent of desensitization.; Type 3 compounds enhance the effect size of the current elicited by 1 mM choline. When tested at higher concentrations up to 10 μM they completely inhibit desensitization, in particular a 1 mM choline application of 250 milliseconds.; Type 4 compounds allow for an initial desensitization of the receptor followed by a re-opening of the receptor during agonist application; settings: for EC50: according to Ex. D.2, "<5" = no top plateau reached at maximal concentration, read-out: Potency (pEC50) (converted); for Pam type: patch-clamp current recording, 1 mM choline
T1 construct: expressed in transfected cells
T1 sequence (P36544 23-502): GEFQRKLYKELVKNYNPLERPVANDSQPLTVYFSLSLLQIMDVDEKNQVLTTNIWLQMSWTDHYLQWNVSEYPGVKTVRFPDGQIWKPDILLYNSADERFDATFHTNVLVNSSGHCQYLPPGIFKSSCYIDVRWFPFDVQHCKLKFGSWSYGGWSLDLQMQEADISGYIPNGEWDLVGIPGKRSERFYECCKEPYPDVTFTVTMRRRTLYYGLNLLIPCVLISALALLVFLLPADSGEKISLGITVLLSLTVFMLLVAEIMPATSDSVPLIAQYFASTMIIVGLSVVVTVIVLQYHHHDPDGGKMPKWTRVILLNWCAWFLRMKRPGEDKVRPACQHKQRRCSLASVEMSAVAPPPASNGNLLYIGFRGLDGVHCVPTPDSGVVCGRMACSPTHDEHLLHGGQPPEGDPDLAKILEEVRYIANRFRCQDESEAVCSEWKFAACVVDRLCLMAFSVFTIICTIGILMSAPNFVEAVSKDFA
In short: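 PAM type assigned qualitatively from current size and desensitization rate/extent when compound is applied simultaneously with 1 mM choline. Recordings: hα7-wt nAChR GH4Cl cells, whole-cell patch clamp, holding −70 mV, series resistance <15 MΩ with ≥60% compensation, pH 7.3 HEPES solutions, solution switching <100 ms.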

[2] = target: T2, hα7-wt nAChR-expressing cells (Homo sapiens, UniProt P36544); test: Ca2+ flux imaging (FDSS) (Protocol B), PAM activity with choline 100 μM; type: cell-based; settings: according to Ex. D.1b; read-out: % Efficacy
T2 construct: expressed in transfected cells; host or cells: hα7-wt nAChR-expressing cells
T2 sequence (P36544 23-502): as above
Protocol: Ca^2+ Flux Imaging (FDSS) (Protocol B)
• a) Assay buffer • Hanks buffered saline solution (HBSS, Invitrogen, Belgium), supplemented with 10 mM HEPES (Invitrogen, Belgium), CaCl2 to a final concentration of 5 mM, 0.1% Bovine serum albumin (Sigma-Aldrich NV, Belgium). • b) Calcium-sensitive dye—Fluo-4AM • Fluo-4AM (Molecular Probes, USA) was dissolved in DMSO containing 10% Pluronic acid (Molecular Probes, USA) to give a stock solution which was diluted in assay buffer supplemented with 5 mM probenicid (Sigma, Al-drich NV, Belgium) to give a final concentration of 2 μM. • c) 384-well plates • Black 384 well plate black/clear plates, PDL pre-coated (Corning, Incorporated, USA) • d) Calcium flux measurement • A Functional drug screening system (FDSS, Hamamatsu) was used to measure intracellular free-calcium flux signals. Method
Monolayers of hα7-wt nAChR-expressing cells were grown in multi-well plates, in particular black-sided, transparent bottomed 384 well plates coated with poly-D-lysine for 24 hours prior to loading with a fluorescent calcium indicator, in a particular embodiment loading with fluo-4AM for up to 120 minutes.
PAM activity was detected in real time by applying the compounds to be tested to the loaded cells along with a α7 nicotinic receptor agonist during constant monitoring of cellular fluorescence in a FDSS. Compounds giving peak fluorescent responses greater than the response due to agonist alone, were considered to be α7 nAChR PAM's. In a particular embodiment, the α7 nicotinic receptor agonist was choline, a more particular embodiment choline applied at a sub-maximal concentration of 100 μM. In a further setting of the present invention the compounds to be tested were applied prior to the α7 nicotinic receptor agonist, in a particular embodiment up to 10 minutes prior to the agonist.
A control response to choline was calculated on each plate from the difference in peak in fluorescence in wells receiving either choline or assay buffer alone. Compounds of the present invention were tested at a concentration range from 0.01 μM to 30 μM. Compounds were considered to have an interesting activity when they potentiated the choline signal at least with 500% when tested at a concentration of 30 μM (the efficacy of 100 μM choline was defined as 100% in the absence of a PAM). The compounds also have a potentiating effect on the response to choline when measured by whole-cell patch clamp electrophysiology in GH4Cl cells stably over-expressing the human wild-type α7 receptor.

`COc1ccc(Nc2nc(CC(=O)NC3CC3)n(-c3cc(C)nc(C)c3)n2)cc1C(F)(F)F` [E229] gave an EC50 [1] of 135 nM, a Pam type [1] of 4 and an Emax [2] of 680%. It also gave a melting point of 265.7 °C.

`Cc1cc(-n2nc(Nc3cc(F)cc(F)c3)nc2CC(=O)NC2CC2)cc(C)n1` [E238] gave an EC50 [1] of 575 nM, an Emax [2] of 382% and a melting point of 289.2 °C.

For `Cc1cc(-n2nc(Nc3cc(F)c(F)c(F)c3)nc2CC(=O)NC2CC2)cc(C)n1` [E241], the EC50 [1] was 138 nM, the Emax [2] was 653% and the melting point was 295.7 °C.

`Cc1cc(-n2nc(Nc3ccc(F)c(F)c3)nc2CC(=O)NCC2CC2)c(C)cn1` [E166] gave an EC50 [1] of 2340 nM, a Pam type [1] of 1 and an Emax [2] of 589%. For the same molecule, the melting point was 211.2 °C.

`Cc1cc(-n2nc(Nc3ccc(F)c(C(F)(F)F)c3)nc2CC(=O)NC2CCC2)cc(C)n1` [E225] showed an EC50 [1] of 100 nM, a Pam type [1] of 0 and an Emax [2] of 660%. It also gave a melting point of 248.8 °C.

Molecule `CNC(=O)Cc1nc(Nc2cc(F)cc(F)c2)nn1-c1cc(C)nc(C)c1` [E232] has an EC50 [1] of 871 nM, an Emax [2] of 289% and a melting point of 282.1 °C.

`CNC(=O)Cc1nc(Nc2ccc(OC)c(C(F)(F)F)c2)nn1-c1cc(C)nc(C)c1` [E227] gave an EC50 [1] of 457 nM, a Pam type [1] of 4 and an Emax [2] of 654%. It also gave a melting point of 263 °C.

`COc1cc(Cl)cc(Nc2nc(CC(=O)NC3CCC3)n(-c3cc(C)nc(C)c3)n2)c1` [E222] gave an EC50 [1] of 83.2 nM, a Pam type [1] of 1 and an Emax [2] of 440%. It also gave a melting point of 257.8 °C.

Molecule `COc1ccc(Nc2nc(CC(=O)NC3CCC3)n(-c3cc(C)nc(C)c3)n2)cc1C(F)(F)F` [E236] has an EC50 [1] of 120 nM, an Emax [2] of 391% and a melting point of 268.7 °C.

With `Cc1cc(-n2nc(Nc3cc(F)cc(Cl)c3)nc2CC(=O)NC2CCC2)cc(C)n1` [E248] the EC50 [1] was 107 nM, the Emax [2] was 421% and the melting point was 287 °C.

In the case of `COc1cc(Cl)cc(Nc2nc(CC(=O)NC3CC3)n(-c3cc(C)nc(C)c3)n2)c1` [E221], the EC50 [1] is reported as 209 nM, the Pam type [1] is reported as 4 and the Emax [2] is reported as 620%. The melting point was 264.4 °C.

Molecule `Cc1cc(-n2nc(Nc3ccc(F)c(F)c3)nc2C[C@H](C)O)cc(C)n1` [E141] has an EC50 [1] of 1380 nM, a Pam type [1] of 2 and an Emax [2] of 961%. For the same molecule, the melting point was 225.7 °C.

With `Cc1cc(-n2nc(Nc3cc(F)cc(Cl)c3)nc2CC(=O)NC2CC2)cc(C)n1` [E247] the EC50 [1] was 214 nM, the Emax [2] was 663% and the melting point was 289.3 °C.

With `Cc1nccc(-n2nc(Nc3cccc(Cl)c3F)nc2CC(=O)NC2CCC2)c1C` [E192] the EC50 [1] was 1580 nM, the Pam type [1] was 1 and the Emax [2] was 397%. It also gave a melting point of 187.9 °C.

Work on `CCNC(=O)Cc1nc(Nc2cc(F)c(F)c(F)c2)nn1-c1cc(C)nc(C)c1` [E215] yielded an EC50 [1] of 214 nM, a Pam type [1] of 2 and an Emax [2] of 658%. For the same molecule, the melting point was 296.1 °C.

Work on `Cc1cc(-n2nc(Nc3ccc(F)c(F)c3)nc2CC(=O)NC2CCC2)c(C)cn1` [E162] yielded an EC50 [1] of 2880 nM, a Pam type [1] of 1 and an Emax [2] of 623%. For the same molecule, the melting point was 244.1 °C.

For `CNC(=O)Cc1nc(Nc2cc(OC)cc(C(F)(F)F)c2)nn1-c1cc(C)nc(C)c1` [E243], the EC50 [1] was 204 nM, the Emax [2] was 802% and the melting point was 284.6 °C.

`Cc1cc(-n2nc(Nc3cc(F)cc(C(F)(F)F)c3)nc2CC(=O)NC2CC2)cc(C)n1` [E253] gave an EC50 [1] of 91.2 nM, an Emax [2] of 950% and a melting point of 286.3 °C.

With `COc1cc(Nc2nc(CC(=O)NC3CCC3)n(-c3cc(C)nc(C)c3)n2)cc(C(F)(F)F)c1` [E244] the EC50 [1] was 31.6 nM, the Emax [2] was 701% and the melting point was 278.4 °C.

In the case of `CNC(=O)Cc1nc(Nc2cc(F)c(F)c(F)c2)nn1-c1cc(C)nc(C)c1` [E240], the EC50 [1] is reported as 490 nM, the Emax [2] is reported as 628% and the melting point is reported as 297.4 °C.

Molecule `Cc1cc(-n2nc(Nc3ccc(F)c(F)c3)nc2C[C@@H](C)O)ccn1` [E198] has an EC50 [1] of 1860 nM, a Pam type [1] of 2 and an Emax [2] of 808%. For the same molecule, the melting point was 210.3 °C.

Work on `CCNC(=O)Cc1nc(Nc2ccc(F)c(Cl)c2)nn1-c1cc(C)nc(C)c1` [E250] yielded an EC50 [1] of 105 nM, an Emax [2] of 546% and a melting point of 283.2 °C.

`CNC(=O)Cc1nc(Nc2cc(Cl)cc(OC)c2)nn1-c1cc(C)nc(C)c1` [E216] showed an EC50 [1] of 603 nM, a Pam type [1] of 4 and an Emax [2] of 576%. It also gave a melting point of 246.2 °C.

In the case of `CCNC(=O)Cc1nc(Nc2cc(F)cc(F)c2)nn1-c1cc(C)nc(C)c1` [E237], the EC50 [1] is reported as 407 nM, the Emax [2] is reported as 522% and the melting point is reported as 289 °C.

For `CNC(=O)CCc1nc(Nc2ccc(F)c(F)c2)nn1-c1ccc(Cl)cc1` [E40], the EC50 [1] was 1910 nM, the Emax [2] was 495% and the melting point was 177.3 °C.

Work on `Cc1cc(-n2nc(Nc3cc(F)cc(C(F)(F)F)c3)nc2CC(=O)NC2CCC2)cc(C)n1` [E254] yielded an EC50 [1] of 75.9 nM, an Emax [2] of 662% and a melting point of 291.8 °C.

`C[C@H](O)Cc1nc(Nc2ccc(F)c(F)c2)nn1-c1ccc(F)cc1` [E19] gave an EC50 [1] of 3020 nM, an Emax [2] of 445% and a melting point of 178 °C.

In the case of `CNC(=O)Cc1nc(Nc2ccc(F)c(C(F)(F)F)c2)nn1-c1cc(C)nc(C)c1` [E223], the EC50 [1] is reported as 316 nM, the Emax [2] is reported as 603% and the melting point is reported as 264.2 °C.

`Cc1cc(-n2nc(Nc3ccc(F)c(F)c3F)nc2CC(=O)NC(C)C)cc(C)n1` [E213] gave an EC50 [1] of 468 nM, a Pam type [1] of 2 and an Emax [2] of 909%. For the same molecule, the melting point was 252.1 °C.

`CCNC(=O)Cc1nc(Nc2cc(F)cc(Cl)c2)nn1-c1cc(C)nc(C)c1` [E246] gave an EC50 [1] of 275 nM, an Emax [2] of 494% and a melting point of 290.2 °C.

Work on `Cc1cc(-n2nc(Nc3ccc(F)c(Cl)c3)nc2CC(=O)NC2CCC2)cc(C)n1` [E231] yielded an EC50 [1] of 57.5 nM, an Emax [2] of 606% and a melting point of 273.9 °C.

Work on `C/C=C/c1nc(Nc2ccc(F)c(C(F)(F)F)c2)nn1-c1ccnc(C)c1` [E11, N-[4-Fluoro-3-(trifluoromethyl)phenyl]-1-(2-methyl-4-pyridinyl)-5-[(1E)-1-propenyl]-1H-1,2,4-triazol-3-amine] yielded an EC50 [1] of 138 nM, an Emax [2] of 341% and a melting point of 226.3 °C.

With `CCNC(=O)Cc1nc(Nc2ccc(F)c(C(F)(F)F)c2)nn1-c1cc(C)nc(C)c1` [E224] the EC50 [1] was 204 nM, the Pam type [1] was 1 and the Emax [2] was 600%. For the same molecule, the melting point was 256.2 °C.

Molecule `Cc1cc(-n2nc(Nc3ccc(F)c(F)c3F)nc2CC(=O)NCC2CC2)cc(C)n1` [E214] has an EC50 [1] of 132 nM, a Pam type [1] of 2 and an Emax [2] of 730%. The melting point was 213.7 °C.

For `Cc1cc(-n2nc(Nc3ccc(F)c(Cl)c3)nc2CC(=O)NC2CC2)cc(C)n1` [E230], the EC50 [1] was 141 nM, the Emax [2] was 417% and the melting point was 287.4 °C.

`Cc1cc(-n2nc(Nc3cc(F)cc(F)c3)nc2CC(=O)NC2CCC2)cc(C)n1` [E239] showed an EC50 [1] of 126 nM, an Emax [2] of 372% and a melting point of 286.7 °C.

Molecule `CCNC(=O)Cc1nc(Nc2cc(F)cc(C(F)(F)F)c2)nn1-c1cc(C)nc(C)c1` [E252] has an EC50 [1] of 195 nM, an Emax [2] of 930% and a melting point of 284.5 °C.
